From PMC6827013, “Alpha-Glucosidase and Alpha-Amylase Inhibitory Activities of Novel Abietane Diterpenes from Salvia africana-lutea” (Antioxidants, 2019) come the findings set out here.

Assay [1] is described as follows: Trolox equivalent absorbance capacity (TEAC) assay. As for the experimental part:
The total anti-oxidant activity of the test sample was measured using previously described methods. Absorbance was read at 734 nm at 25 °C in a plate reader, and the results were expressed as μmole Trolox equivalents per […] of dry weight (μM TE/g DW) of the test samples.
(§1) The in vitro antioxidant activity of the isolated compounds of the methanolic extract of S. africana-lutea were investigated by evaluating their ferric-ion reducing antioxidant power (FRAP), trolox equivalent absorbance capacity (TEAC), and oxygen radical absorbance capacity (ORAC) activities. […] Phenolic compounds have been reported to be responsible for the antioxidant activity of numerous plant species by stabilization of radicals by donating electrons or by metal ion complexation, among other mechanisms. Nevertheless, other aspects can be considered, for example, the presence of vicinal hydroxyl groups is essential in a pronounced antioxidant activity. Abietane diterpenes are known for having strong antioxidant activity due to the presence of ortho-dihydroxyl groups/vicinal hydroxyls in the aromatic ring that serve as hydrogen and/or electron donating agents to the corresponding reactive species leading to the formation of the stable quinone derivatives. It has been shown that the phenolic group at the 11 position would be more implicated in the antioxidant activity. In general, phenolic compounds are expected to transfer electrons or donate protons to the reactive radicals because of the resonance stability of the phenoxy radical.

The nature of assay [2]: Oxygen radical absorbance capacity (ORAC) assay.
Excerpt: ORAC assay was done according to the previous method. ORAC values were expressed as micromoles of trolox equivalents (TE) per milligram of the test sample. Samples without a perfect curve were further diluted, and the dilution factors were used in the calculations of such samples.
as §1

Assay [3] is described as follows: Ferric-ion reducing antioxidant power (FRAP) assay. Conditions: ascorbic acid equivalents; mean ± SEM, n = 3. On the procedure:
The FRAP assay was carried out in accordance with the method described previously. […] L-Ascorbic acid was used as a standard, and the results were expressed as µmole ascorbic acid equivalents per […] of dry weight (μM AAE/g DW) of the test samples.
The in vitro antioxidant activity of the isolated compounds of the methanolic extract of S. africana-lutea were investigated by evaluating their ferric-ion reducing antioxidant power (FRAP), trolox equivalent absorbance capacity (TEAC), and oxygen radical absorbance capacity (ORAC) activities. […] Nevertheless, other aspects can be considered, for example, the presence of vicinal hydroxyl groups is essential in a pronounced antioxidant activity. […] It has been shown that the phenolic group at the 11 position would be more implicated in the antioxidant activity. In general, phenolic compounds are expected to transfer electrons or donate protons to the reactive radicals because of the resonance stability of the phenoxy radical.

Assay [4] deals with α-glucosidase (Saccharomyces cerevisiae). Put plainly: Alpha-glucosidase inhibitory activity (p-NPG substrate, absorbance 405 nm). Format: biochemical. Particulars: mean ± SEM, n = 3; NA = not active at the test concentrations. On the procedure:
Alpha-glucosidase inhibitory activity of the isolated compounds was carried out according to the standard method, with a slight modification. […] Next, 20 μL of p-NPG (5 mM) was added as a substrate and incubated further at 37 °C for 20 min. The reaction was stopped by adding 50 μL of sodium carbonate Na2CO3 (0.1 M). […] Each experiment was performed in triplicates. […] Inhibitory activity (%) = (1 − A/B) ×100(1) where A is the absorbance in the presence of the test substance and B is the absorbance of the control.

Assay [5] has as its target T1, α-amylase (procaine pancreas) (Sus scrofa, UniProt P00690).
T1 construct: α-amylase (procaine pancreas); purchased Sigma-Aldrich, Cape town, South Africa; host or cells: pancreas
T1 sequence (P00690 16-511): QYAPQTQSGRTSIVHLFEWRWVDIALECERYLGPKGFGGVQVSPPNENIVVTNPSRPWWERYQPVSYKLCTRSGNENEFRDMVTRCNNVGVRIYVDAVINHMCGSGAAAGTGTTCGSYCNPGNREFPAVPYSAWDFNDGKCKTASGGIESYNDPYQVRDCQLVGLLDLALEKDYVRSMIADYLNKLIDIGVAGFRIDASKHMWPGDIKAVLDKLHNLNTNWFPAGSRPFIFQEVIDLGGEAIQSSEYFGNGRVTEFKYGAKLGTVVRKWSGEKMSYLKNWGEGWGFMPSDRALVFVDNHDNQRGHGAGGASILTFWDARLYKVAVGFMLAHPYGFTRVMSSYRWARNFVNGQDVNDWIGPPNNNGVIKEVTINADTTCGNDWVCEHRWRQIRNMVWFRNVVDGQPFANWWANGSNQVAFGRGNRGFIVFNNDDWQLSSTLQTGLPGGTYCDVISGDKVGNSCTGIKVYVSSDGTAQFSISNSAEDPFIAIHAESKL
The assay can be described thus: Alpha-amylase inhibitory activity (starch substrate, DNS, absorbance 540 nm). Conditions: mean ± SEM, n = 3; NA = not active at the test concentrations. Format: biochemical.
Method: The alpha-amylase inhibitory activity of the extract and fractions was carried out according to the standard method, with a slight modification [24]. In a 96-well plate, the reaction mixture containing 50 μL of phosphate buffer (100 mM, pH = 6.8), 10 μL alpha amylase (2 U/mL), and 20 μL of varying concentrations of isolated compounds was pre-incubated at 37 °C for 20 min. Next, 20 μL of 1% soluble starch (100 mM phosphate buffer pH 6.8) was added as a substrate and incubated further at 37 °C for 30 min. A volume of 100 μL of the color reagent (DNS) was added and then boiled for 10 min. The absorbance of the resulting mixture was measured at 540 nm using a Multiplate Reader (Multiskan thermo scientific, version 1.00.40). […] Each experiment was performed in triplicates. The results were expressed as the percentage inhibition, which was calculated using Formula (2). Inhibitory activity (%) = (1 − A/B) ×100(2) where A is the absorbance in the presence of the test substance and B is the absorbance of the control.

Setting [6] is: Trolox equivalents, mean ± SEM, n = 3, NA = not active at the test concentrations.

The structures appear in SMILES notation. Read-outs that look alike come from different tables or passages of the source.

As to `COc1c(C(C)C)cc2c(c1O)[C@@]1(C(=O)O)CCC[C@](C)(COC(C)=O)C1CC2` (stereo partly shown) [Compound 1, 19-acetoxy-12-methoxycarnosic acid], in assay [1] (setting [6]), the TEAC came to 694.0 ±1.6 µmole TE/g. The ORAC stood at 2588.2 ± 10.1 µM TE/g in assay [2] and 2588.2 ± 10.1 µmole TE/g in assay [2] (setting [6]). In addition, the FRAP in assay [3] came to 1217.4 ± 2.9 µM AAE/g.

Regarding `COC1c2cc(C(C)C)c(O)c(O)c2C23CCC(OC(C)=O)C(C)(C)C2C1OC3=O` (stereo not drawn) [Compound 2, 3β-acetoxy-7α-methoxyrosmanol], the TEAC in assay [1] (setting [6]) is 635.7 ± 0.8 µmole TE/g. The ORAC in assay [2] (setting [6]) is recorded as 2233.9 ± 8.0 µmole TE/g. Moreover, the FRAP in assay [3] was 2200.9 ± 14.2 µM AAE/g.

As for `COC1c2cc(C(C)C)c(O)c(O)c2C23CCCC(C)(COC(C)=O)C2C1OC3=O` (stereo not drawn) [Compound 3, 19-acetoxy-7α-methoxyrosmanol], the TEAC in assay [1] (setting [6]) came to 124.4 ± 0.6 µmole TE/g. Moreover, the ORAC in assay [2] (setting [6]) is on record as 735.4 ± 2.0 µmole TE/g. Also, in assay [3], the FRAP was 1440.4 ± 9.1 µM AAE/g.

In the case of `COc1c(C(C)C)cc2c(c1O)C13CCCC(C)(COC(C)=O)C1CC2OC3=O` (stereo not shown) [Compound 4, 19-acetoxy-12-methoxy carnosol], the TEAC in assay [1] (setting [6]) is recorded as 440.1 ± 1.5 µmole TE/g. Also, the ORAC in assay [2] (setting [6]) stood at 559.7 ± 15.2 µmole TE/g. In addition, in assay [3], the FRAP was determined as 1257.0 ± 6.7 µM AAE/g.

Consider `CC(C)c1cc2c(c(O)c1O)[C@]13CCC[C@](C)(C(O)OC1=O)C3CC2` (stereo partly shown) [Compound 5, clinopodiolide A], for which the TEAC is 862.2 ± 1.4 µM TE/g in assay [1] and 862.2 ± 1.4 µmole TE/g in assay [1] (setting [6]). Moreover, the ORAC in assay [2] (setting [6]) is 2357.2 ± 0.1 µmole TE/g. Also, in assay [3], the FRAP was determined as 2262.9 ± 11.0 µM AAE/g.

On to `COc1c(C(C)C)cc2c(c1O)[C@]13CCC[C@](C)(C(O)OC1=O)C3CC2` (stereo partly shown) [Compound 6, clinopodiolide B], for which the results for the TEAC in assay [1] and in assay [1] (setting [6]) were 705.5 ± 2.0 µM TE/g and 724.9 ± 1.3 µmole TE/g, respectively. The ORAC in assay [2] (setting [6]) is reported as 1502.5 ± 21.2 µmole TE/g. Also, the FRAP in assay [3] turned out to be 1480.0 ± 3.9 µM AAE/g. The “Alpha-Glucosidase IC50” value in assay [4] was determined as 81.7 ± 2.1 µg/mL.

On to `CC1(C)CC[C@]2(C(=O)O)CC[C@]3(C)C(=CC[C@@H]4[C@@]5(C)CC[C@H](O)C(C)(C)[C@@H]5CC[C@]43C)[C@@H]2C1` [Compound 7, oleanolic acid], for which the FRAP in assay [3] is given as 347.8 ± 3.7 µM AAE/g.

Regarding `CC1CCC23CCC4(C)C5(C)CCC6C(C)(C)C(O)CCC6(C)C5C=CC4(OC2=O)C3C1C` (stereo not shown) [Compound 9, 11,12-dehydroursolic acid lactone], the FRAP in assay [3] was 283.4 ± 3.9 µM AAE/g. The “Alpha-Glucosidase IC50” value in assay [4] worked out at 85.8 ± 2.3 µg/mL.

In the case of `CC1(C)CC[C@]2(C)CC[C@]3(C)C(=CC[C@@H]4[C@@]5(C)CC[C@H](O)C(C)(C)[C@@H]5CC[C@]43C)[C@@H]2C1` [Compound 10, β-amyrin], the FRAP in assay [3] is reported as 412.2 ± 13.0 µM AAE/g. The “Alpha-Glucosidase IC50” value in assay [4] is 17.1 ± 1.0 µg/mL. The same molecule gave a half-inhibitory concentration (IC50) in assay [5] of 180 µM.

For `O=C(O[C@@H]1Cc2c(O)cc(O)cc2O[C@@H]1c1cc(O)c(O)c(O)c1)c1cc(O)c(O)c(O)c1` [EGCG, Epigallocatechingallate, reference compound], in assay [1] (setting [6]), the TEAC stood at 4146.4 ± 19.8 µmole TE/g. Besides, the ORAC in assay [2] (setting [6]) amounted to 3976.8 ± 3.8 µmole TE/g. For the same molecule, the FRAP in assay [3] was found to be 7525.0 ± 4.9 µM AAE/g.

What is called IC50 is the concentration needed to halve the response being measured.
